Measured values from ChEMBL document CHEMBL5055675, “Apoptosis Inducing 1,3,4-Oxadiazole Conjugates of Capsaicin: Their In Vitro Antiproliferative and In Silico Studies” (ACS Med Chem Lett, 2021).
Calls of active or inactive are those of the source. The calls are words filed in the database; no cut-off is given here.

Legend:
MOLT-4 = test: Antiproliferative activity against human MOLT-4 cells assessed as cell growth at 10 uM incubated for 48 hrs by sulforhodamine B assay relative to control; assay type: functional; details: read-out: Activity
SK-MEL-2 = test: Antiproliferative activity against human SK-MEL-2 cells assessed as cell growth at 10 uM incubated for 48 hrs by sulforhodamine B assay relative to control; assay type: functional; details: read-out: Activity
SW-620 = test: Antiproliferative activity against human SW-620 cells assessed as cell growth at 10 uM incubated for 48 hrs by sulforhodamine B assay relative to control; assay type: functional; details: read-out: Activity
MCF7 = test: Antiproliferative activity against human MCF7 cells assessed as cell growth at 10 uM incubated for 48 hrs by sulforhodamine B assay relative to control; assay type: functional; details: read-out: Activity
OVCAR-8 = test: Antiproliferative activity against human OVCAR-8 cells assessed as cell growth at 10 uM incubated for 48 hrs by sulforhodamine B assay relative to control; assay type: functional; details: read-out: Activity
OVCAR-4 = test: Antiproliferative activity against human OVCAR-4 cells assessed as cell growth at 10 uM incubated for 48 hrs by sulforhodamine B assay relative to control; assay type: functional; details: read-out: Activity
SF-268 = test: Antiproliferative activity against human SF-268 cells assessed as cell growth at 10 uM incubated for 48 hrs by sulforhodamine B assay relative to control; assay type: functional; details: read-out: Activity
UACC-257 = test: Antiproliferative activity against human UACC-257 cells assessed as cell growth at 10 uM incubated for 48 hrs by sulforhodamine B assay relative to control; assay type: functional; details: read-out: Activity
HT-29 = test: Antiproliferative activity against human HT-29 cells assessed as cell growth at 10 uM incubated for 48 hrs by sulforhodamine B assay relative to control; assay type: functional; details: read-out: Activity
MDA-MB-435 = test: Antiproliferative activity against human MDA-MB-435 cells assessed as cell growth at 10 uM incubated for 48 hrs by sulforhodamine B assay relative to control; assay type: functional; details: read-out: Activity
Hs-578T = test: Antiproliferative activity against human Hs-578T cells assessed as cell growth at 10 uM incubated for 48 hrs by sulforhodamine B assay relative to control; assay type: functional; details: read-out: Activity
A549 = test: Antiproliferative activity against human A549/ATCC cells assessed as cell growth at 10 uM incubated for 48 hrs by sulforhodamine B assay relative to control; assay type: functional; details: read-out: Activity
SN12C = test: Antiproliferative activity against human SN12C cells assessed as cell growth at 10 uM incubated for 48 hrs by sulforhodamine B assay relative to control; assay type: functional; details: read-out: Activity
NCI-H460 [1] = test: Antiproliferative activity against human NCI-H460 cells assessed as cell growth at 10 uM incubated for 48 hrs by sulforhodamine B assay relative to control; assay type: functional; details: read-out: Activity
M14 = test: Antiproliferative activity against human M14 cells assessed as cell growth at 10 uM incubated for 48 hrs by sulforhodamine B assay relative to control; assay type: functional; details: read-out: Activity
PC-3 = test: Antiproliferative activity against human PC-3 cells assessed as cell growth at 10 uM incubated for 48 hrs by sulforhodamine B assay relative to control; assay type: functional; details: read-out: Activity
SNB-75 = test: Antiproliferative activity against human SNB-75 cells assessed as cell growth at 10 uM incubated for 48 hrs by sulforhodamine B assay relative to control; assay type: functional; details: read-out: Activity
K562 = test: Antiproliferative activity against human K562 cells assessed as cell growth at 10 uM incubated for 48 hrs by sulforhodamine B assay relative to control; assay type: functional; details: read-out: Activity
RXF 393 = test: Antiproliferative activity against human RXF 393 cells assessed as cell growth at 10 uM incubated for 48 hrs by sulforhodamine B assay relative to control; assay type: functional; details: read-out: Activity
DU-145 = test: Antiproliferative activity against human DU-145 cells assessed as cell growth at 10 uM incubated for 48 hrs by sulforhodamine B assay relative to control; assay type: functional; details: read-out: Activity
U-251 = test: Antiproliferative activity against human U-251 cells assessed as cell growth at 10 uM incubated for 48 hrs by sulforhodamine B assay relative to control; assay type: functional; details: read-out: Activity
NCI-H460 [2] = test: Cell cycle arrest in human NCI-H460 cells assessed as accumulation of cells in G1 phase at 20 uM measured after 72 hrs by propidium iodide/RNase staining based flow cytometry analysis (Rvb= 62.9%); assay type: functional
NCI-H460 [3] = test: Cell cycle arrest in human NCI-H460 cells assessed as accumulation of cells in G2/M phase at 10 uM measured after 72 hrs by propidium iodide/RNase staining based flow cytometry analysis (Rvb= 10.22%); assay type: functional
NCI-H460 [4] = test: Induction of apoptosis in human NCI-H460 cells assessed as late apoptotic cells at 5 uM measured after 72 hrs by Annexin V-FITC and propidium iodide staining based flow cytometry analysis (Rvb= 6.93%); assay type: functional
NCI-H460 [5] = test: Cell cycle arrest in human NCI-H460 cells assessed as accumulation of cells in S phase at 10 uM measured after 72 hrs by propidium iodide/RNase staining based flow cytometry analysis (Rvb= 26.87%); assay type: functional
NCI-H460 [6] = test: Induction of apoptosis in human NCI-H460 cells assessed as early apoptotic cells at 10 uM measured after 72 hrs by Annexin V-FITC and propidium iodide staining based flow cytometry analysis (Rvb= 6.61%); assay type: functional
NCI-H460 [7] = test: Inhibition of ERK phosphorylation in human NCI-H460 cells at 20 uM measured after 72 hrs by western blot analysis; assay type: cell-based
NCI-H460 [8] = test: Induction of apoptosis in human NCI-H460 cells assessed as decrease in pro-caspase3 expression level at 1 to 20 uM measured after 72 hrs by western blot analysis; assay type: functional, cell-based; details: dose 1-20 µM
NCI-H460 [9] = test: Effect on p53 expression in human NCI-H460 cells at 1 to 20 uM measured after 72 hrs by western blot analysis; assay type: functional, cell-based; details: dose 1-20 µM
NCI-H460 [10] = test: Cell cycle arrest in human NCI-H460 cells assessed as accumulation of cells in G2/M phase at 20 uM measured after 72 hrs by propidium iodide/RNase staining based flow cytometry analysis (Rvb= 10.22%); assay type: functional
NCI-H460 [11] = test: Induction of apoptosis in human NCI-H460 cells assessed as decrease in pro-PARP expression level at 1 to 20 uM measured after 72 hrs by western blot analysis; assay type: functional, cell-based; details: dose 1-20 µM
NCI-H460 [12] = test: Induction of ROS production in human NCI-H460 cells incubated for 24 hrs by CM-H2DCFDA probe based flow cytometry analysis; assay type: functional, cell-based; details: dose 5-20 µM
NCI-H460 [13] = test: Induction of ROS production in human NCI-H460 cells at 20 uM incubated for 24 hrs by CM-H2DCFDA probe based flow cytometry analysis; assay type: functional, cell-based
NCI-H460 [14] = test: Cell cycle arrest in human NCI-H460 cells assessed as accumulation of cells in S phase at 5 uM measured after 72 hrs by propidium iodide/RNase staining based flow cytometry analysis (Rvb= 26.87%); assay type: functional
NCI-H460 [15] = test: Induction of apoptosis in human NCI-H460 cells assessed as early apoptotic cells at 20 uM measured after 72 hrs by Annexin V-FITC and propidium iodide staining based flow cytometry analysis (Rvb= 6.61%); assay type: functional
NCI-H460 [16] = test: Antimigratory activity against human NCI-H460 cells assessed as inhibition of cell migration measured after 24 hrs by wound healing assay; assay type: functional, cell-based; details: dose 5-20 µM
NCI-H460 [17] = test: Inhibition of cell proliferation in human NCI-H460 cells assessed as reduction in PCNA expression measured after 72 hrs by western blot analysis; assay type: functional, cell-based; details: dose 1-20 µM
NCI-H460 [18] = test: Antimigratory activity against human NCI-H460 cells assessed as reduction in vimentin expression level at 1 to 20 uM measured after 72 hrs by western blot analysis; assay type: functional, cell-based; details: dose 1-20 µM

Compound | growth at 10 µM (MOLT-4) | growth at 10 µM (SK-MEL-2) | growth at 10 µM (SW-620) | growth at 10 µM (MCF7) | growth at 10 µM (OVCAR-8) | growth at 10 µM (OVCAR-4) | growth at 10 µM (SF-268) | growth at 10 µM (UACC-257) | growth at 10 µM (HT-29) | growth at 10 µM (MDA-MB-435) | growth at 10 µM (Hs-578T) | growth at 10 µM (A549) | growth at 10 µM (SN12C) | growth at 10 µM (NCI-H460 [1]) | growth at 10 µM (PC-3) | growth at 10 µM (SNB-75) | growth at 10 µM (K562) | growth at 10 µM (RXF 393) | growth at 10 µM (DU-145) | growth at 10 µM (U-251) | also measured
COc1cc(CNC(=O)CCCC/C=C/C(C)C)ccc1OCc1nnc(Nc2cccc(Br)c2)o1 | 83.5% | 105% | 95.4% | 83.7% | 98% | 85.1% | 92.6% | 105% | 97.7% | 101% | 93.7% | 95.4% | 95.7% | 97.5% | 87.9% | 83.5% | 65% | 70.6% | 89.8% | 102% | growth at 10 µM (M14): 93.3%
COc1cc(CNC(=O)CCCC/C=C/C(C)C)ccc1OCc1nnc(Nc2ccccc2F)o1 | 82% | 111% | 98.9% | 66.9% | 45.2% | 0.69% | 45.5% | 98.2% | 90% | 100% | 83.7% | 105% | 70.5% | 80.3% | 72.5% | 57.8% | 60.4% | 68.8% | 88.7% | 84% | growth at 10 µM (M14): 99.7%
COc1cc(CNC(=O)CCCC/C=C/C(C)C)ccc1OCc1nnc(Nc2ccc([N+](=O)[O-])cc2)o1 | 84.2% | 71.9% | 67.3% | 55.2% | 25% | 11.2% | 79.7% | 77.6% | 71.7% | 66.4% | 63.2% | 49% | 49% | 33.5% | 37.6% | 48.7% | 59.6% | 54.1% | 62% | 48.6% | Activity (NCI-H460 [2]): 56.45%; Activity (NCI-H460 [3]): 11.81%; Activity (NCI-H460 [4]): 8.07%; Activity (NCI-H460 [5]): 29.05%; Activity (NCI-H460 [6]): 8.29%; inhibition (NCI-H460 [7]): Active; Activity (NCI-H460 [8]): Active; Activity (NCI-H460 [9]): inactive; Activity (NCI-H460 [10]): 8.706%; Activity (NCI-H460 [11]): Active; growth at 10 µM (M14): 69.6%; Activity (NCI-H460 [12]): Dose-dependent effect; Activity (NCI-H460 [13]): Active; Activity (NCI-H460 [14]): 28.16%; Activity (NCI-H460 [15]): 21.15%; Activity (NCI-H460 [16]): Dose-dependent effect; inhibition (NCI-H460 [17]): Dose-dependent effect; Activity (NCI-H460 [18]): inactive
COc1cc(CNC(=O)CCCC/C=C/C(C)C)ccc1OCc1nnc(SCCc2c[nH]c3ccccc23)o1 | 29.2% | 86.7% | 84.7% | 58.8% | 71.3% | 71.7% | 78.9% | 101% | 69.7% | 90.2% | 81% | 79.4% | 83.1% | 89.8% | 56.9% | 83.1% | 40.7% | 54% | 94.9% | 80.5% | 
